Source: US12655174B2, “Adenosine A3 receptor agonists, preparation methods and uses thereof” (ZHEJIANG VIMGREEN PHARMACEUTICALS, LTD., priority 2020, dated 2026)

Assay: Pharmacokinetic test of compound in SD rat
Format: in vivo
Details: SD rats, intragastric administration (IG), cassette dosing
Protocol: Example 28: Pharmacokinetic Test of Compound in SD Rat
The animal species used in this experiment were SD rats. There were 3 animals per group. The rats were dosed in cassette format, i.e., multiple (1-6) different compounds were dosed simultaneously to the same group of the SD rats. The vehicle used for the drug was 5% DMSO+5% Solutl+90% ([…] methylcellulose M450), and the administration route was intragastric administration (IG).

Compound	AUC_D [kg·ng·h/mL/mg]
[2H]C([2H])([2H])NC(=O)[C@H]1O[C@@H](n2cnc3c(NCc4cccc(C#N)c4)nc(-c4cncc(Cl)c4)nc32)[C@H](O)[C@@H]1O [compound 221, (2S,3S,4R,5R)-5-(2-(5-chloropyridin-3-yl)-6-((3-cyanobenzyl)amino)-9H-purin-9-yl)-3,4-dihydroxyl-N-(methyl-d3)-tetrahydrofuran-2-carboxamide]	278.77
[2H]C([2H])([2H])NC(=O)[C@H]1O[C@@H](n2cnc3c(NCc4ccccc4)nc(-c4ccoc4)nc32)[C@H](O)[C@@H]1O [compound 11, (2S,3S,4R,5R)-5-(6-(benzylamino)-2-(furan-3-yl)-9H-purin-9-yl)-3,4-dihydroxyl-N-(methyl-d3)-tetrahydrofuran-2-formamide]	174.00
[2H]C([2H])([2H])NC(=O)[C@H]1O[C@@H](n2cnc3c(NCCOC)nc(-c4cncc(Cl)c4)nc32)[C@H](O)[C@@H]1O [compound 288, (2S,3S,4R,5R)-5-(2-(5-chloropyridin-3-yl)-6-((2-methoxyethyl)amino)-9H-purin-9-yl)-3,4-dihydroxyl-N-(methyl-d3)-tetrahydrofuran-2-carboxamide]	118.00
[2H]C([2H])([2H])NC(=O)[C@H]1O[C@@H](n2cnc3c(NCc4cccc(I)c4)nc(-c4cncc(Cl)c4)nc32)[C@H](O)[C@@H]1O [compound 250, (2S,3S,4R,5R)-5-(2-(5-chloropyridin-3-yl)-6-((3-iodobenzyl)amino)-9H-purin-9-yl)-3,4-dihydroxyl-N-(methyl-d3)tetrahydrofuran-2-carboxamide]	2137.00
[2H]C([2H])([2H])NC(=O)[C@H]1O[C@@H](n2cnc3c(NCc4ccccc4)nc(-c4cncc(CC)c4)nc32)[C@H](O)[C@@H]1O [compound 34, (2S,3S,4R,5R)-5-(6-(benzylamino)-2-(5-ethylpyridin-3-yl)-9H-purin-9-yl)-3,4-dihydroxyl-N-(methyl-d3)-tetrahydrofuran-2-formamide]	578.00
[2H]C([2H])([2H])NC(=O)[C@H]1O[C@@H](n2cnc3c(N[C@@H](C)c4ccccc4)nc(-c4cncc(Cl)c4)nc32)[C@H](O)[C@@H]1O [compound 252]	532.00
[2H]C([2H])([2H])NC(=O)[C@H]1O[C@@H](n2cnc3c(NCc4cccc(C)n4)nc(-c4cncc(Cl)c4)nc32)[C@H](O)[C@@H]1O [compound 271, (2S,3S,4R,5R)-5-(2-(5-chloropyridin-3-yl)-6-((6-methylpyridin-2-yl)methylamino)-9H-purin-9-yl)-3,4-dihydroxyl-N-(methyl-d3)-tetrahydrofuran-2-carboxamide]	1131.18
CNC(=O)[C@H]1O[C@@H](n2cnc3c(NCc4ccccc4)nc(-c4ccc(C)nc4)nc32)[C@H](O)[C@@H]1O [compound 120, (2S,3S,4R,5R)-5-(6-(benzylamino)-2-(6-methylpyridin-3-yl)-9H-purin-9-yl)-3,4-dihydroxyl-N-methyltetrahydrofuran-2-carboxamide]	86.00
CCNC(=O)[C@H]1O[C@@H](n2cnc3c(NC)nc(-c4ccc(OC)nc4)nc32)[C@H](O)[C@@H]1O [compound 58, (2S,3S,4R,5R)-N-ethyl-3,4-dihydroxyl-5-(2-(6-methoxypyridin-3-yl)-6-(methylamino)-9H-purin-9-yl)tetrahydrofuran-2-carboxamide]	110.00
[2H]C([2H])([2H])NC(=O)[C@H]1O[C@@H](n2cnc3c(NCc4ccccc4)nc(-c4cnc(C)c(C)c4)nc32)[C@H](O)[C@@H]1O [compound 17, (2S,3S,4R,5R)-5-(6-(benzylamino)-2-(5,6-dimethylpyridin-3-yl)-9/-purin-9-yl)-3,4-dihydroxyl-N-(methyl-d3)-tetrahydrofuran-2-formamide]	168.00
[2H]C([2H])([2H])NC(=O)[C@H]1O[C@@H](n2cnc3c(NCc4ccccc4)nc(-c4cncc(C)c4)nc32)[C@H](O)[C@@H]1O [compound 16, (2S,3S,4R,5R)-5-(6-(benzylamino)-2-(5-methylpyridin-3-yl)-9H-purin-9-yl)-3,4-dihydroxyl-N-(methyl-d3)-tetrahydrofuran-2-formamide]	1291.00
CNC(=O)[C@H]1O[C@@H](n2cnc3c(NCc4ccccc4)nc(-c4ccoc4)nc32)[C@H](O)[C@@H]1O [compound 149, (2S,3S,4R,5R)-5-(6-(benzylamino)-2-(furan-3-yl)-9H-purin-9-yl)-3,4-dihydroxyl-N-methyltetrahydrofuran-2-carboxamide]	337.00
[2H]C([2H])([2H])NC(=O)[C@H]1O[C@@H](n2cnc3c(NCc4ccc(OC)cc4)nc(-c4cncc(Cl)c4)nc32)[C@H](O)[C@@H]1O [compound 267, (2S,3S,4R,5R)-5-(2-(5-chloropyridin-3-yl)-6-(4-methoxybenzylamino)-9H-purin-9-yl)-3,4-dihydroxyl-N-(methyl-d3)-tetrahydrofuran-2-carboxamide]	82.98
CONC(=O)[C@H]1O[C@@H](n2cnc3c(NCc4cccc(I)c4)ncnc32)[C@H](O)[C@@H]1O [compound 3, (2S,3S,4R,5R)-5-(6-(3-iodobenzylamino)-9H-purin-9-yl)-3,4-dihydroxyl-N-methoxy-tetrahydrofuran-2-formamide]	152.40
CNC(=O)[C@H]1O[C@@H](n2cnc3c(NCc4ccccc4)nc(-c4cncc(Cl)c4)nc32)[C@H](O)[C@@H]1O [compound 150, (2S,3S,4R,5R)-5-(6-(benzylamino)-2-(5-chloropyridin-3-yl)-9H-purin-9-yl)-3,4-dihydroxyl-N-methyltetrahydrofuran-2-carboxamide]	1821.60
CNC(=O)[C@H]1O[C@@H](n2cnc3c(NCc4ccccc4)nc(-c4ccsc4)nc32)[C@H](O)[C@@H]1O [compound 151, (2S,3S,4R,5R)-5-(6-(benzylamino)-2-(thiophen-3-yl)-9H-purin-9-yl)-3,4-dihydroxyl-N-methyltetrahydrofuran-2-carboxamide]	89.00
[2H]C([2H])([2H])NC(=O)[C@H]1O[C@@H](n2cnc3c(NCc4cccc(Br)c4)nc(-c4cncc(Cl)c4)nc32)[C@H](O)[C@@H]1O [compound 248, (2S,3S,4R,5R)-5-(6-((3-bromobenzyl)amino)-2-(5-chloropyridin-3-yl)-9H-purin-9-yl)-3,4-dihydroxyl-N-(methyl-d3)tetrahydrofuran-2-carboxamide]	3298.00
CNC(=O)[C@H]1O[C@@H](n2cnc3c(NCc4cccc(F)c4)nc(-c4cncc(Cl)c4)nc32)[C@H](O)[C@@H]1O [compound 210, (2S,3S,4R,5R)-5-(2-(5-chloropyridin-3-yl)-6-((3-fluorobenzyl))amino-9H-purin-9-yl)-3,4-dihydroxyl-N-methyltetrahydrofuran-2-carboxamide]	580.90
[2H]C([2H])([2H])NC(=O)[C@H]1O[C@@H](n2cnc3c(NCc4ccc(C(F)(F)F)cc4)nc(-c4cncc(Cl)c4)nc32)[C@H](O)[C@@H]1O [compound 165, (2S,3S,4R,5R)-5-(6-(4-(trifluoromethyl)benzylamino)-2-(5-chloropyridin-3-yl)-9H-purin-9-yl)-3,4-dihydroxyl-N-(methyl-d3)-tetrahydrofuran-2-formamide]	564.70
CNC(=O)[C@H]1O[C@@H](n2cnc3c(NCc4ccccc4)nc(-c4ccc(F)c(F)c4)nc32)[C@H](O)[C@@H]1O [compound 143, (2S,3S,4R,5R)-5-(6-(benzylamino)-2-(3,4-difluorophenyl)-9H-purin-9-yl)-3,4-dihydroxyl-N-methyltetrahydrofuran-2-carboxamide]	80.00
[2H]C([2H])([2H])NC(=O)[C@H]1O[C@@H](n2cnc3c(NCCC)nc(-c4cncc(Cl)c4)nc32)[C@H](O)[C@@H]1O [compound 285, (2S,3S,4R,5R)-5-(2-(5-chloropyridin-3-yl)-6-(propylamino)-9H-purin-9-yl)-3,4-dihydroxyl-N-(methyl-d3)-tetrahydrofuran-2-carboxamide]	175.00
[2H]C([2H])([2H])NC(=O)[C@H]1O[C@@H](n2cnc3c(NCc4cc(Cl)cc(Cl)c4)nc(-c4cncc(Cl)c4)nc32)[C@H](O)[C@@H]1O [compound 240, (2S,3S,4R,5R)-5-(2-(5-chloropyridin-3-yl)-6-(3,5-dichlorobenzylamino)-9H-purin-9-yl)-3,4-dihydroxyl-N-(methyl-d3)-tetrahydrofuran-2-carboxamide]	1024.58
[2H]C([2H])([2H])NC(=O)[C@H]1O[C@@H](n2cnc3c(NCc4cccc(C)c4)nc(-c4cncc(Cl)c4)nc32)[C@H](O)[C@@H]1O [compound 164, (2S,3S,4R,5R)-5-(6-(m-methylphenylmethylamino)-2-(5-chloropyridin-3-yl)-9H-purin-9-yl)-3,4-dihydroxyl-N-(methyl-d3)-tetrahydrofuran-2-formamide]	845.57
[2H]C([2H])([2H])NC(=O)[C@H]1O[C@@H](n2cnc3c(NCc4cc(Cl)ccn4)nc(-c4cncc(Cl)c4)nc32)[C@H](O)[C@@H]1O [compound 214]	765.47
[2H]C([2H])([2H])NC(=O)[C@H]1O[C@@H](n2cnc3c(NCc4ccccc4)nc(-c4ccco4)nc32)[C@H](O)[C@@H]1O [compound 12, (2S,3S,4R,5R)-5-(6-(benzylamino)-2-(furan-2-yl)-9H-purin-9-yl)-3,4-dihydroxyl-N-(methyl-d3)-tetrahydrofuran-2-formamide]	79.00
[2H]C([2H])([2H])NC(=O)[C@H]1O[C@@H](n2cnc3c(NCc4cccc(I)c4)ncnc32)[C@H](O)[C@@H]1O [compound 1, (2S,3S,4R,5R)-5-(6-(3-iodobenzylamino)-9H-purin-9-yl)-3,4-dihydroxyl-N-(methyl-d3)-tetrahydrofuran-2-formamide]	343.50
